Assay results as given in publication PMC6030159 (Scientific Reports, 2018).
Several values for one entry are separate records, joined by “and”; a condition that tells them apart may be missing. Equal values may be shown once. Entries after “also recorded” stand apart in the source; their conditions may differ.

Key:
endogenous MYC protein = assay: Western blot of endogenous MYC in HeLa cells; type: cell-based; settings: 10 μM, 24 hours
Protocol: (§1) These assays were performed essentially as described in[67],[68]. For further information on immunohistochemistry, and on primers and antibodies, see Supplementary Information.

[1] = target: T1, endogenous MYC:MAX interaction (Homo sapiens, UniProt P01106); assay: isPLA endogenous MYC:MAX in breast cancer cells (MCF7); type: cell-based; settings: 24 hours; for MYC:MAX isPLA signals, % of DMSO-treated controls: 10 μM, breast cancer cells; for IC50: titration in MCF7 cells, read-out: IC50 for inhibition of MYC:MAX by isPLA
T1 construct: endogenous in cells; host or cells: breast cancer cells; MCF7 named for the titration
Protocol: The isPLA assay has been described. Antibodies used are listed in Supplementary Information. […] Slides were washed in PBS with 0.05% Tween 20 and incubated in blocking buffer after which isPLA was performed using the Duolink® in situ PLA kit (Sigma-Aldrich) according to the manufacturer’s protocol. DNA was stained with DAPI. Incubation with primary antibodies were performed at +4 °C overnight. Images were taken using an Axiovert 200M inverted microscope (Zeiss) and fluorescent dots were quantified using semi-automated analysis in ImageJ (http://imagej.net) and averaged to number of dots per cell.

FRA1:JUN = system: T2, FRA1:JUN; assay: isPLA endogenous FRA1:JUN; type: cell-based, human; settings: 10 μM
T2 construct: endogenous in cells
Protocol: The isPLA assay has been described. Antibodies used are listed in Supplementary Information. Briefly, cells were grown on collagen-coated chamber slides (Falcon), and treated with 1–10 μM of compounds, respectively, for 16 hours, then washed twice with PBS and fixed in ice cold methanol for 5–15 min at room temperature. Slides were washed in PBS with 0.05% Tween 20 and incubated in blocking buffer after which isPLA was performed using the Duolink® in situ PLA kit (Sigma-Aldrich) according to the manufacturer’s protocol. DNA was stained with DAPI. Incubation with primary antibodies were performed at +4 °C overnight. Images were taken using an Axiovert 200M inverted microscope (Zeiss) and fluorescent dots were quantified using semi-automated analysis in ImageJ (http://imagej.net) and averaged to number of dots per cell.

[2] = system: MYC-driven transcription (ODC1, RSG16, CR2); assay: RT-qPCR of MYC target genes in U2OS-MYC-ER cells; type: cell-based; settings: 10 μM, 24 hours
Protocol: To investigate the effect of the compounds on MYC-driven transcription, we utilized U2OS cells expressing a MYC-estrogen receptor (MYC-ER) fusion protein, the activity of which is regulated by the ligand 4-hydroxytamoxifen (HOT)[43].
as §1

MYCbHLHZip:MAXbHLHZip = target: T3, MYCbHLHZip:MAXbHLHZip (Homo sapiens, UniProt P01106); assay: MST MYC:MAX heterodimer formation assay; type: binding; settings: for shift of MAX thermophoresis relative to DMSO (MYC:MAX MST): 50 µM compound, 1 µM MYCbHLHZip
T3 construct: 6xHis (N); made in house; host or cells: E. coli BL21 (DE3), pET28a
Text: We next investigated the capacity of the small molecule inhibitors to directly target the MYC:MAX interaction in vitro. Two biophysical interaction assays, microscale thermophoresis (MST)[44] and surface plasmon resonance (SPR)[45], were developed using recombinant MYC and MAX proteins (Suppl. Fig. S1C) (manuscript in prep.). MST is based on the shift of fluorescent molecules moving in a temperature gradient (thermophoresis), which can be perturbed by interactions. In the MST MYC:MAX interaction assay, fluorescently labeled MAXbHLHZip was combined with MYCbHLHZip pre-mixed with compound.
MST was carried out on a Monolith NT.115 with blue/green filters, kindly provided by Luca Jovine, Karolinska Institutet Huddinge, according to manufacturer’s protocol (NanoTemper). MYCbHLHZip, MAXbHLHZip, BSA and BCL-XL recombinant proteins and compounds were diluted and titrated in PBS supplemented with 0.05% Triton-X-114 or 0.05% Tween-20. Titration of molecules was carried out in 16 PCR tubes into which a fixed concentration of fluorescent molecule was added. The mixture was applied to capillaries (standard treated, NanoTemper), and scanned in the Monolith NT.115 to measure initial fluorescence of molecule. MST was induced and fluorescence was measured during 40 seconds. Double measurements were carried out (MST power of 20% and 40%, or 40% and 60%) for each sample. Delta fluorescence or relative fluorescence of fluorescent molecule normalized to control vehicle was plotted against titrated molecule concentration. The protein labeling kit GREEN-NHS (NanoTemper) was used to label primary amines of proteins according to manufacture’s protocol.

SK-N-DZ cells = assay: Anchorage-independent growth in agarose; type: cell-based; settings: Homo sapiens, 384 h, 0.35% agarose, 16 days
Protocol: Triton-X-114 (Sigma). Truncated p53 core protein was a kind gift from Klas Wiman, CCK, […]
Cell proliferation assays. Cell growth and viability was estimated in triplicates with WST-1 (Roche) or Resazurin sodium salt (Sigma-Aldrich) assays in medium at 37°C and 5% CO 2 for 2 hours after which absorbance or fluorescence, respectively, was measured with an Omega Fluostar (BMG Labtech) in a 96 well plate format. Cell counting was done in 96 well plates with CellTracker Green (ThermoFisher) for 30 min in the incubator, after which DAPI was added for 5 min. Images were taken in the green (FITC) and blue (DAPI) channels using a fluorescence microscope (ImageXpress Micro, Molecular Devices). For anchorage-independent growth assay, cells were suspended in 250 µl 0.35% SeaPlaque agarose (InVitro) and seeded into 24 well plates which had previously been coated with a bottom layer of 250 µl 0.7% agarose. After 16 days, the colonies were stained with 100 µg/ml MTT (Sigma) overnight and colonies were counted.
Immunohistochemistry. Apoptosis was visualized at the single-cell level on tumor cryosections using the TUNEL method using the In Situ Cell Death Detection Fluorescein-Roche kit and analyzed by fluorescence microscopy. Briefly, tumor cryosections were fixed in 4% paraformaldyde (PFA) and the assay was performed following the instructions from the manufacturer. Negative controls were run using the reagent without the TdT enzyme. Samples were mounted using Vectashield mounting medium (Vector) and DAPI was used as nuclear counterstaining. Cell proliferation and microvascular density (MVD) were evaluated through Ki67 and CD31staining, respectively, on tumor cryosections and detected by immunofluoresence. Visualization and image acquisition was done in a Zeiss microscope, and for panoramic views by a Vectra imaging system. For quantification, areas with positive TUNEL and Ki67 staining were measured using Image J software. For the analysis of MVD, the number of vessel structures per microscopic field was calculated.

T1 sequence (P01106 whole entry): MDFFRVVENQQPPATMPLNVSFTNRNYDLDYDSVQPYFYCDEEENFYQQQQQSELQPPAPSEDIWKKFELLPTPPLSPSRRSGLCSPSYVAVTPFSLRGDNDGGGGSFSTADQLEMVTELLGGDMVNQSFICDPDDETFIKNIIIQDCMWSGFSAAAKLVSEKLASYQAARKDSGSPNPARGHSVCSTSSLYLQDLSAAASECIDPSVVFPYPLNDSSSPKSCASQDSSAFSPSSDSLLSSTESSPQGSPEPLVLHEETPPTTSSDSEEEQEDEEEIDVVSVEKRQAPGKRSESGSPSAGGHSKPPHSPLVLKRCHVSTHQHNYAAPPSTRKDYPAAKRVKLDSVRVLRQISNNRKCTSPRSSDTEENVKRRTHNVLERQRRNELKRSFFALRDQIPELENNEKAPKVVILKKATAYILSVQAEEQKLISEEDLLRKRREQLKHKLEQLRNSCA
T3 sequence (P01106 367-447 limits assumed): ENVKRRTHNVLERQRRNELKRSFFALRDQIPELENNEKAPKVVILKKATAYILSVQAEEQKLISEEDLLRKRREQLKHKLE

| MYC:MAX isPLA signals, % of DMSO-treated controls [1] [%] | IC50 [1] | shift of MAX thermophoresis relative to DMSO (MYC:MAX MST) (MYCbHLHZip:MAXbHLHZip) | GI50 (SK-N-DZ cells) [µM] | Structure (SMILES) | effect on endogenous MYC protein levels (western blot) (endogenous MYC protein) | effect on FRA1:JUN interaction (isPLA) (FRA1:JUN) | HOT-induced expression of MYC target genes ODC1, RSG16 and CR2 [2] | Kd (MYCbHLHZip:MAXbHLHZip; titration with 1 µM MYCbHLHZip and labeled MAXbHLHZip, read-out: Kd of thermophoresis shift, MYC:MAX MST) [µM] | effect on endogenous MYC protein levels (western blot) (endogenous MYC protein; listed as MYCM-14) |
| --- | --- | --- | --- | --- | --- | --- | --- | --- | --- |
| 23 | ~6 µM and 6 µM | less effective | 5 | CCCCN(c1ccccc1)c1ncnc2c1cnn2C [MYCMI-11] | did not affect MYC protein levels to any greater extent; also recorded: do not | did not significantly affect | reduced expression of the genes to a lesser extent |  |  |
| 23 | ~6 µM and 6 µM | less effective | 0.75 | O=C(O)/C=C/C(=O)Nc1cccc2c1-c1ccccc1C2=O [MYCMI-14] | did not affect MYC protein levels to any greater extent | did not significantly affect | reduced expression of the genes to a lesser extent |  | do not |

| Structure (SMILES) | MYC:MAX isPLA signals, % of DMSO-treated controls [1] [%] | IC50 [1] | shift of MAX thermophoresis relative to DMSO (MYC:MAX MST) (MYCbHLHZip:MAXbHLHZip) | GI50 (SK-N-DZ cells) [µM] | effect on endogenous MYC protein levels (western blot) (endogenous MYC protein) | effect on FRA1:JUN interaction (isPLA) (FRA1:JUN) | HOT-induced expression of MYC target genes ODC1, RSG16 and CR2 [2] | Kd (MYCbHLHZip:MAXbHLHZip; titration with 1 µM MYCbHLHZip and labeled MAXbHLHZip, read-out: Kd of thermophoresis shift, MYC:MAX MST) [µM] | effect on endogenous MYC protein levels (western blot) (endogenous MYC protein; listed as MYCM-14) |
| --- | --- | --- | --- | --- | --- | --- | --- | --- | --- |
| CCOc1ccc2nc3cc(/N=N/c4ccc(N)nc4N)ccc3c(N)c2c1 [MYCMI-6] | 7 | < 1.5 µM and 1.5 µM | shifted MAX thermophoresis | < 0.4 | did not affect MYC protein levels to any greater extent; also recorded: do not | did not significantly affect | significantly reduced | 4.3 |  |
